Common to all, as to assay type: in vivo, female NOD/Shi Jic mice
The subject of experiment [1] is NOD mice (spontaneous type I diabetes model). Briefly: Evaluation in NOD mice: weekly urinalysis for urinary sugar (diabetes onset). The following applies: 1 mg/kg mixed in feed over 19 weeks from 6 weeks of age, N = 6, positive = urinary glucose 2,000 mg/dl or higher, control group 2/6. The text has this:
(§1) NOD mice have been used as spontaneous type I diabetes and Sjoegren's syndrome model animals. Lymphocyte infiltration lesions similar to those of type I diabetes are developed in the pancreatic islets of Langerhans, and lymphocyte infiltration lesions similar to those of Sjoegren's syndrome are developed in the salivary glands (Eur. J. Immunol., 28, pp. 3336-3345, 1998). To female NOD/Shi Jic mice at 6 weeks of age, tamibarotene (Am80, 4-[(5,6,7,8-tetrahydro-5,5,8,8-tetramethyl-2-naphthalenyl)carbamoyl]benzoic acid) was administered over 19 weeks by mixing it in feed. During the test period, urinalysis was conducted once every week to measure urinary sugar. Test paper for urinalyses, Pre Test 3aII (Wako Pure Chemical Industries), was immersed in mouse fresh urine, and when a determined glucose value was 2,000 mg/dl or higher, the mouse was judged to be with diabetes. When the mice gave a sign of physical agony, they were euthanized. After the end of the administration period, pancreases and submaxillary glands were extracted from the euthanized mice, and fixed by immersion in a neutrally buffered 10% formalin fixation solution. From the fixed pancreases and submaxillary glands, hematoxin-eosin stained histopathological specimens were prepared, and the influence of tamibarotene on the pancreases and salivary glands was histopathologically evaluated. […]

In experiment [2] the test system is pancreatic islets of Langerhans of NOD mice. Briefly: Evaluation in NOD mice: histopathological evaluation of pancreases (islets of Langerhans). The following applies: 1 mg/kg mixed in feed over 19 weeks, N = 6; for Pancreatic La islet lymphocyte infiltration score (average): score 0 no lesion, 1 slight, 2 moderate, 3 severe, control group 2.7. The text has this:
NOD mice have been used as spontaneous type I diabetes and Sjoegren's syndrome model animals. Lymphocyte infiltration lesions similar to those of type I diabetes are developed in the pancreatic islets of Langerhans, and lymphocyte infiltration lesions similar to those of Sjoegren's syndrome are developed in the salivary glands (Eur. J. Immunol., 28, pp. 3336-3345, 1998). To female NOD/Shi Jic mice at 6 weeks of age, tamibarotene (Am80, 4-[(5,6,7,8-tetrahydro-5,5,8,8-tetramethyl-2-naphthalenyl)carbamoyl]benzoic acid) was administered over 19 weeks by mixing it in feed. During the test period, urinalysis was conducted once every week to measure urinary sugar. Test paper for urinalyses, Pre Test 3aII (Wako Pure Chemical Industries), was immersed in mouse fresh urine, and when a determined glucose value was 2,000 mg/dl or higher, the mouse was judged to be with diabetes. When the mice gave a sign of physical agony, they were euthanized. After the end of the administration period, pancreases and submaxillary glands were extracted from the euthanized mice, and fixed by immersion in a neutrally buffered 10% formalin fixation solution. From the fixed pancreases and submaxillary glands, hematoxin-eosin stained histopathological specimens were prepared, and the influence of tamibarotene on the pancreases and salivary glands was histopathologically evaluated. For each of the tamibarotene-administered group and the control group, 6 mice were used.
The results are indicated by numbers of urinary sugar positive mice, scores for destruction of the pancreatic islets of Langerhans (henceforth occasionally abbreviated as “Pancreatic La islet”) associated with lymphocyte infiltration (Pancreatic La islet lymphocyte infiltration score), scores for decrease in number of the pancreatic islets of Langerhans (Pancreatic La islet number score), and submaxillary gland lymphocyte infiltration scores. The scores were determined according to the following criteria.
0: No lesion was observed

Experiment [3] has as its system submaxillary glands of NOD mice. Briefly: Evaluation in NOD mice: histopathological evaluation of submaxillary glands (Sjoegren's syndrome model). The following applies: 1 mg/kg mixed in feed over 19 weeks, N = 6, score 0 no lesion to 3 severe, control group 1.7.
Description: as §1

Here are results for one compound from patent US20080139842A1, “Medicament for preventive and/or therapeutic treatment of diseases with secretory disorder” (R&R INC., priority 2006, published 2008).

For `CC1(C)CCC(C)(C)c2cc(NC(=O)c3ccc(C(=O)O)cc3)ccc21` [Tamibarotene, 4-[(5,6,7,8-tetrahydro-5,5,8,8-tetramethyl-2-naphthalenyl)carbamoyl]benzoic acid], the “Urinary sugar positive mice” value in experiment [1] was 0/6; in experiment [1] (listed as tamibarotene), “no urinary sugar positive mouse was observed”. For the same compound, the entries for the “Pancreatic La islet lymphocyte infiltration score (average)” value in experiment [2] and in experiment [2] (listed as tamibarotene) were 1.7 and “apparently reduced”, respectively. For the same compound, in experiment [2] (score for decrease in number of islets, score 0 no lesion to 3 severe, control group 1), the “Pancreatic La islet number score (average)” value was 0. Also, the figures for the “Submaxillary gland lymphocyte infiltration score (average)” value in experiment [3] and in experiment [3] (listed as tamibarotene) were 0.8 and “reduced”, respectively.
